The target in assay [1] is ATP-dependent RNA helicase DDX3X (Homo sapiens) (UniProt O00571). The experiment in a line: Inhibition of human recombinant full length DDX3X helicase activity expressed in Escherichia coli using dsRNA as substrate measured after 40 mins by FRET assay.
Another assay deals with dengue virus type 2. The assay can be described thus: Antiviral activity against DENV2 New Guinea C strain infected in human Huh-7 cells measured after 72 hrs by immunodetection assay. The settings on record: Huh-7, 72 h. Format: functional, organism-based.
In assay [2] the test system is Huh-7. The assay can be described thus: Cytotoxicity against human Huh-7 cells incubated for 72 hrs by Cell Titer-Glo luminescence assay. In kind it is functional. (In general: Cellular ATP, detected with luciferase, serves as a proxy for viable cell number.)
Another assay relates to West Nile virus. The assay can be described thus: Antiviral activity against WNV infected in human Huh-7 cells preincubated with cells for 1 hr and measured after 4 days by plaque reduction assay. Format: functional, organism-based. (Plaque reduction counts the foci of infection that form in a cell layer.)
Assay [3] has as its system Huh-7. The experiment in a line: Cytotoxicity against human Huh-7 cells incubated for 3 days by MTT assay. The settings on record: Huh-7, 72 h, time 3 day. In kind it is functional. (In general: Tetrazolium dyes change colour on reduction, which living cells bring about.)
For assay [4], the species on record is Homo sapiens. The experiment in a line: Inhibition of human recombinant full length DDX3X E256A mutant helicase activity using dsRNA as substrate measured after 40 mins by FRET assay.
The next assay concerns Hepacivirus hominis. The experiment in a line: Inhibition of Hepatitis C virus NSP 3 helicase activity.
Assay [5] is filed under the species Homo sapiens. The assay can be described thus: Inhibition of human recombinant full length DDX3X R262A mutant helicase activity using dsRNA as substrate measured after 40 mins by FRET assay.
In assay [6] the target is T1, ATP-dependent RNA helicase DDX1 (Homo sapiens) (UniProt Q92499).
T1 sequence (whole entry): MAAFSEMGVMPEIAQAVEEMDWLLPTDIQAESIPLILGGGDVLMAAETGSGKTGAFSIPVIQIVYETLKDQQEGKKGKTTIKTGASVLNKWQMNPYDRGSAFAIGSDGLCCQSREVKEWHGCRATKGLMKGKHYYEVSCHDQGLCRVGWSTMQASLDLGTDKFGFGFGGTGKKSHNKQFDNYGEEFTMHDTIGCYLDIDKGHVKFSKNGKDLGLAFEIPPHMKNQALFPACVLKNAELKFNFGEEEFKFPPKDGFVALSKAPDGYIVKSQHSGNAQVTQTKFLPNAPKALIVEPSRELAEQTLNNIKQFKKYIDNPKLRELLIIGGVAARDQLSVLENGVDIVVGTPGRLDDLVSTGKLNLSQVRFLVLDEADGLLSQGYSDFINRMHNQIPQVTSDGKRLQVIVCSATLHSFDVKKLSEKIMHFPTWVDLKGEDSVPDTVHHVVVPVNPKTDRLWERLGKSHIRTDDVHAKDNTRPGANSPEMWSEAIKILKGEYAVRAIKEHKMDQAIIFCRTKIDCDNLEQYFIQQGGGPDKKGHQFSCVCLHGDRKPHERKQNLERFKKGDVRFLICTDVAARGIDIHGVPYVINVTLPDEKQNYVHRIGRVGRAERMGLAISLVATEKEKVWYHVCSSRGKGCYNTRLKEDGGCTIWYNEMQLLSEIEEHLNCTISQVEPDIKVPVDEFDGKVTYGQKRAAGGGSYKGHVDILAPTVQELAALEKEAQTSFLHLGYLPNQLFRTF
The experiment in a line: Inhibition of human DDX1 helicase activity.

Another assay concerns Arabidopsis thaliana. The assay can be described thus: Inhibition of Arabidopsis thaliana STRS2 helicase activity.

Molecules are shown by their SMILES. pIC50: −log10 of the molar value. Activity calls are given as the source filed them. The rule behind the calls is not given here.

The pIC50 is −log10 of the IC50, conventionally taken in molar units. In general, CC50 refers to the concentration that lowers cell viability or growth by half. A higher CC50 goes with better tolerance by the cells.

Chain of ATP-dependent RNA helicase DDX3X (Homo sapiens) (O00571 2-662 limits assumed): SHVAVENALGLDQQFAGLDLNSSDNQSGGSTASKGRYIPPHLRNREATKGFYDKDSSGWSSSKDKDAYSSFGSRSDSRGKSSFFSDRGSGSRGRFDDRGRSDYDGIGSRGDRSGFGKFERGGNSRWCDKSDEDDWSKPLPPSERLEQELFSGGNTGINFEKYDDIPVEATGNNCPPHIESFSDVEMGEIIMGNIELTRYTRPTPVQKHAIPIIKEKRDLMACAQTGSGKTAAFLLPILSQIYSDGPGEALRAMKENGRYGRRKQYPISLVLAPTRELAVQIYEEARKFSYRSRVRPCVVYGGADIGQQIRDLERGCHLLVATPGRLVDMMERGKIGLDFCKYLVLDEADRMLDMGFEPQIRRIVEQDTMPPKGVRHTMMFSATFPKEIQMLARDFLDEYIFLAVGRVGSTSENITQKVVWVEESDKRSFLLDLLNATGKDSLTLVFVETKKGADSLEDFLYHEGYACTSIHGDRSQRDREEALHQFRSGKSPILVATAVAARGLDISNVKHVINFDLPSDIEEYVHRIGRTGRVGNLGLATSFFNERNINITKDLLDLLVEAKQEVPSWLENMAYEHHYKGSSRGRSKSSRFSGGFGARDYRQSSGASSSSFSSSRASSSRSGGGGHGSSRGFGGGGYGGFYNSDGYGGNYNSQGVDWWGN

With `CC1CC(C)CN(S(=O)(=O)c2ccc(N)cc2)C1` (stereo not drawn), the ID50 entry in assay [1] was “inactive”.

On to `Nc1ccc(Nc2nc3ccccc3[nH]2)cc1`, for which the ID50 result in assay [1] is “inactive”.

In the case of `NCC(O)CN(c1ccccc1)c1ccccc1` (stereo not drawn), the ID50 in assay [1] came to 0.7 µM.

Regarding `NC[C@H](O)CN(c1ccccc1)c1ccccc1`, the pIC50 is 4.90 in the assay on dengue virus type 2 and 6.05 in the assay on West Nile virus. Also, in assay [1], the ID50 was found to be 0.007 µM. For the same compound, the figures for the CC50 with Huh-7 [2] and in the assay with Huh-7 [3] were 120 µM and over 100 µM, respectively.

`NC(=O)c1ncn([C@@H]2O[C@H](CO)[C@@H](O)[C@H]2O)n1` [RIBAVIRIN]: the CC50 with Huh-7 [2] and in the assay with Huh-7 [3] was over 100 µM throughout. Also, the pIC50 with West Nile virus was 4.04.

As to `CC(=O)N1c2ccccc2CCc2cc([N+](=O)[O-])ccc21`, the ID50 entry in [1] is “inactive”.

Turning to `CCOC(=O)Nc1ccc2c(c1)N(C(=O)CCN(CC)CC)c1ccccc1CC2`, the ID50 result in assay [1] is “inactive”.

Consider `COc1ccc(CN)cc1Cn1cccn1`, for which the ID50 result in [1] is “inactive”.

For `CC(N)Cc1cn(Cc2ccccc2)c2ccccc12` (stereo not drawn), the ID50 entry in [1] was “inactive”.

In the case of `CNC(=O)N1c2ccccc2CCc2ccccc21`, in assay [1], the ID50 result was “inactive”.

On to `NC[C@@H](O)CN(c1ccccc1)c1ccccc1`, for which the pIC50 was 5.20 in the assay on dengue virus type 2 and 6.06 in the assay on West Nile virus. Besides, the ID50 in the assay filed under Homo sapiens [4] is 0.3 µM; in [1], 0.006 µM; in the assay on Hepacivirus hominis it was over 100 µM; in the assay filed under Homo sapiens [5], 0.004 µM; in assay [6] it was 58 µM; with Arabidopsis thaliana, over 100 µM. Moreover, the values for the CC50 in the assay with Huh-7 [2] and in the assay on Huh-7 [3] were 79 µM and over 100 µM, respectively.

For `NCC(O)CN(c1ccccc1)c1ccccc1` (racemic) [listing 1 of 2 here], the pIC50 was 5.10 with dengue virus type 2 and 5.64 with West Nile virus. Further, the CC50 in the assay on Huh-7 [2] was 100 µM; in the assay on Huh-7 [3], over 100 µM.

In the case of `NCC(O)CN(c1ccccc1)c1ccccc1` (racemic) [listing 2 of 2 here], the ID50 in the assay filed under Homo sapiens [4] is 73 µM; in assay [1] it was 0.002 µM; in the assay on Hepacivirus hominis, over 100 µM; in the assay listed under Homo sapiens [5], 0.001 µM; in assay [6] it was 18 µM; in the assay with Arabidopsis thaliana, over 100 µM.

Regarding `Nc1ccc(S(=O)(=O)c2ccccc2)cc1`, in assay [1], the ID50 stood at 200 µM.

Regarding `OC(C#CCN1CCCCC1)(c1ccccc1)c1ccccc1`, in assay [1], the ID50 entry is “inactive”.

The values are drawn from ChEMBL document CHEMBL5230101, “Unique Domain for a Unique Target: Selective Inhibitors of Host Cell DDX3X to Fight Emerging Viruses” (J Med Chem, 2020).
